Reference: PMC12775124, “CUL4A-DDB1-DCAF10 is an N-recognin for N-terminally acetylated Src kinases” (Nature Communications, 2026)
Read-outs that look alike come from different tables or passages of the source.

What was measured:
[1] = molecular target: T1, human NatA (Homo sapiens, UniProt P41227+Q9BXJ9); assay: In vitro Nt-acetylation assay (NatA, CPM fluorescence); type: biochemical
T1 construct: Human NatA (hNatA) full-length (FL) was cloned; made in house; host or cells: Tnao38 insect cells (baculovirus, pFL vector)
T1 sequence (P41227 1-235): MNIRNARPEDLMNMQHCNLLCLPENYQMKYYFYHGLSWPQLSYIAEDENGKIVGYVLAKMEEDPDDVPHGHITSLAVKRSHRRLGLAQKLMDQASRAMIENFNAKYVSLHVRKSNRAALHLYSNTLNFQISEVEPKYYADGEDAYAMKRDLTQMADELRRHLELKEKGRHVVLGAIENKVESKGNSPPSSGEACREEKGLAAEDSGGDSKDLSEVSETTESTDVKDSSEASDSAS
T1 sequence (Q9BXJ9 1-866 partner): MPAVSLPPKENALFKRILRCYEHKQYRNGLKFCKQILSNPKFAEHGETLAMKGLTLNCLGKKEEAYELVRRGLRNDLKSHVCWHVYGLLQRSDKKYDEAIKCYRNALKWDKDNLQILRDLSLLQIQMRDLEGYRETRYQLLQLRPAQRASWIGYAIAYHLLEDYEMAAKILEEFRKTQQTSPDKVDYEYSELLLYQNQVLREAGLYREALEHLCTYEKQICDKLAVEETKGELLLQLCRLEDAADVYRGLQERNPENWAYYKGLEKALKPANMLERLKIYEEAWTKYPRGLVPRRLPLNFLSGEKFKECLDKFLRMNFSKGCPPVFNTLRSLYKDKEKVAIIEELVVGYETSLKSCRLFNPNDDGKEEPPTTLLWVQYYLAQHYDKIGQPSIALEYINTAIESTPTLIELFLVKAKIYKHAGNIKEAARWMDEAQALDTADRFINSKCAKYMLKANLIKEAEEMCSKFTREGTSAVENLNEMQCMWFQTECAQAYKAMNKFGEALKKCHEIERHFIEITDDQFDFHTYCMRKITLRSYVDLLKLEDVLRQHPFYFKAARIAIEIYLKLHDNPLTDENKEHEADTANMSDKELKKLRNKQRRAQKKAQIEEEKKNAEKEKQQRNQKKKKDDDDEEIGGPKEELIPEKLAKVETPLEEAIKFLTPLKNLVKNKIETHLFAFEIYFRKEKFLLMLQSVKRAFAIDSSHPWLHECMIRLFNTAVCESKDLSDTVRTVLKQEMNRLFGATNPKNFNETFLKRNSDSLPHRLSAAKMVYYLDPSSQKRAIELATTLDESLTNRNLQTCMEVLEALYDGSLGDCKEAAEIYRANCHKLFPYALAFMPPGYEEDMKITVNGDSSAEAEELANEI
Description: Gly-starting proteins can be substrates of the Nt-acetyltransferase NatA[3],[21]. Having established direct DCAF10 binding to Ac-Gly N-termini, we next asked whether SFK N-termini are bona fide NatA substrates. We developed an in vitro Nt-acetylation assay comprising purified NatA, acetyl-CoA (Ac-CoA), and the peptide of interest (Fig. 3a, b)[33]. Acetyl-group transfer was assessed using CPM [7-(diethylamino)−3-(4′-maleimidophenyl)−4-methylcoumarin], which reacts specifically with free thiol groups to produce a highly fluorescent product (excitation: 390 nm; emission: 479 nm), allowing detection of CoA production after acetyl-group transfer to the peptide (Supplementary Fig. 4e). We optimized the conditions to determine Michaelis–Menten kinetics for NatA-mediated Nt-acetylation with a target peptide ([…]) previously used for NatA assays and co-crystallization (Supplementary Fig. 4f)[34]. […] Likely, this was due to a Km even higher than that of Src, and implying that the peptide concentrations in the assay might have been insufficient for the reaction to proceed with an appreciable rate. […] Negative controls (COX17 and Ac-Lyn) produced low signals. […] Given the direct association of NatA with SFK N-termini at the ribosomal exit tunnel, however, we surmise that Nt-acetylation of SFKs in cells may proceed despite these unfavorable kinetic parameters.
The assay was performed essentially as described previously. Briefly, peptide substrates (Supplementary Table 1) were incubated with purified human NatA and acetyl-CoA; acetylation was quantified by CPM fluorescence (CoA detection), and Michaelis–Menten parameters were derived from 8-point 1:1 dilution series within the linear range (n = 4 independent enzymatic assays). Full buffer compositions, reagent concentrations, plate format, instrument settings, controls, and fitting procedures are provided in the Supplementary Methods and Tables. […]
301 Cloning, expression, and purification of human NatA
302 Human NatA (hNatA) full-length (FL) was cloned in a pFL vector expressing both
303 genes, NAA15 with a 6× C-term histidine tag (NAA15-6xHIS) and NAA102. The
304 expression was carried out in insect cells (Tnao38) for 72 h infected 1:20 with
305 baculovirus. Washed cell pellets were lysed by sonication in a lysis buffer containing 200
306 mM NaCl, 50 mM HEPES pH 8.0, 20 mM Imidazole, and 2 mM TCEP. The protein
307 purification was performed as a three-step purification, starting with an affinity nickel
308 column, followed by an ion-exchange column with a gradient of 50–300 mM NaCl, and
309 finished with size exclusion chromatography (SEC) using an S200 10/300 column. The
310 main peaks were collected, and the protein was concentrated in the SEC buffer (150 mM
311 NaCl, 50 mM HEPES pH 8.0, 1 mM EDTA). The purified hNatA was flash-frozen in
312 liquid nitrogen and stored at -80°C.
314 In vitro Nt-acetylation assay
315 The method has been described in detail previously2. Briefly, different peptides
316 (Supplementary Table 1) and concentrations (an eight-step, 1:1 dilution series for
317 Michaelis-Menten curves) as indicated were incubated with 20 nM hNatA and 80 µM Ac-
318 CoA in reaction buffer (50 mM HEPES pH 8.0, 0.5 mM EDTA, 0.005% CHAPS) for 60
319 (Src) or 120 min (Lyn), at RT in a 384-well microplate (Corning 4514) (n = 4).
320 Afterwards, the enzymatic reaction was stopped by adding 1:1 DMSO with 10 µM (final
321 concentration 5 µM) of the thiol reactive CPM (7-Diethylamino-3-
322 (4'Maleimidylphenyl)4-Methylcoumarin). After 1 h at RT, the readout was performed
323 with a Tecan Spark® Multimode Microplate Reader (excitation 390 nm, emission 479
324 nm). Background values at 0 µM peptide were subtracted, and control reactions omitting
325 NatA or Ac-CoA were performed. Dilution series of CoA incubated with 5 µM CPM were
326 used to generate a linear equation (y = 10.99*x + 81.06) to calculate acetylation velocities
327 for NatA-mediated peptide acetylation. […]

[2] = tested on: DCAF10; assay: Peptide pull-down with quantitative MS, mouse liver lysate, DCAF10; type: binding
Description: (§1) Biotinylated 10-mer Nt-peptides (Nt-free, Nt-acetylated, and, where indicated, Nt-myristoylated; sequences in Supplementary Table 1) were synthesized with a C-terminal Lys3 spacer and biotin, immobilized on magnetic streptavidin beads, and incubated with HeLa or mouse liver lysates. After standardized washes, bound proteins were on-bead reduced/alkylated, digested with LysC/trypsin, desalted, and analysed by LC-MS in DIA mode (Orbitrap Exploris 480) as described previously[24]. Variants included endogenous Nt-sequences, swap and mutant (Ala-Ala-Ala or Nt-amino acids) peptides, and pairwise comparisons of conditions of interest.
Briefly, magnetic streptavidin beads (DynabeadsTM
Beads were then washed three times with PBS.
210 washing, 1 mg of HeLa lysates or 2 mg of liver lysates was taken, and lysis buffer (75
Lysates were incubated with streptavidin
HeLa pull-downs were washed twice with lysis buffer and twice
Liver pulldowns were washed twice with cold low salt buffer (50 mM
220 individually ventilated cages under a 12-h light/dark cycle and were provided with sterile
No animal procedures were performed specifically for this
230 of 1:100), and desalted/concentrated on C18 reversed phase stage tips as previously
526 Mass spectrometry measurements and raw file processing
527 Samples (peptide pull-downs, IPs and high-pH fractionations) were separated on an […]

[3] = tested on: DCAF10; assay: Peptide pull-down with quantitative MS, HeLa lysate, DCAF10; type: binding, human (HeLa); settings: HeLa lysate; for DCAF10 binding (in words): Nt-Ac vs Nt-free peptides
Description: Beads presenting 10-residue synthetic Nt-peptides of proteins of interest in their free (Nt-free) or modified (e.g., Nt-acetylated) versions were incubated with lysates from HeLa cells, followed by MS-based quantification of retained binders (Fig. 1a).
as §1
All MS experiments were performed as independent biological triplicates. Relative protein quantification was carried out using the label-free algorithm integrated in DIA-NN[53], and statistical testing was performed in Perseus using a two-sided Student’s t test with permutation-based multiple-testing-adjusted p-values[53],[54], as specified in the figure legends. […] Volcano blots were visualized with RStudio (version 2023.06.0). […] Cell experiments were performed as biological replicates, and binding assays as independent assays. […] Data are presented as mean ± s.d. Fold changes are reported as the ratio of the normalized value for the condition of interest to the normalized control value, with mean ± s.d. computed across biological replicates.

[4] = 20 nM NatA, 80 µM Ac-CoA, pH 8.0, RT, 120 min, peptide up to 1 mM, CPM fluorescence, mean ± s.d., n = 4, read-out: Km
[5] = conclusion: poor NatA substrates, read-out: Km, summary statement
[6] = original assay, peptide up to 160 μM
[7] = rounded values in Peer Review File, read-out: Km, as given in rebuttal
[8] = starting peptide concentration 1 mM

Sequence | Km [1, 4] [µM] | Km [1, 5] [µM] | Nt-acetylation by NatA (in words) [1, 6] | Km [1, 7] [µM] | Nt-acetylation by NatA (in words) [1, 8] | DCAF10 binding (in words) [2] | DCAF10 binding, Nt-Ac vs Nt-Myr (in words) [3] | DCAF10 binding (in words) [3] | log₂ difference Ac-Lyn vs Ac-THOC7, DCAF10 ([3]; n = 3) | DCAF10 binding in initial pull-downs, log2 ([3]; Ac-Src vs Nt-free Src) [log2] | DCAF10 binding, Nt-Ac vs Nt-Myr (in words) ([3]; listed as Nt-acetylated Src)
GCIKSKGKDSKK [Nt-free Lyn, Nt-peptide of Lyn (aa 1–10 + KKK-biotin), Nt-free] | 411 ± 94 | > 100 | did not show Nt-acetylation under these conditions | 411 | detectable Nt-acetylation | – | – | – | – | – | –
GCIKSKGKDSKK [Ac-Lyn, Nt-peptide of Lyn (aa 1–10 + KKK-biotin), Nt-acetylated] | – | – | – | – | low signals | confirmed DCAF10 binding | DCAF10 selectively recognizes the acetylated form | bound to DCAF10 | 5.83 | – | –
GSNKSKPKDAKK [Ac-Src, Nt-peptide of Src, Nt-acetylated] | – | – | no detectable acetylation | – | – | – | – | bound to DCAF10 | – | ~5 | DCAF10 selectively recognizes the acetylated form
GCVQCKDKEAKK [Nt-free Fyn, Nt-peptide of Fyn, Nt-free] | 235 ± 46 | > 100 | did not show Nt-acetylation under these conditions | 235 | detectable Nt-acetylation | – | – | – | – | – | –
